Experimental data reported in patent US20260325617A1, “INKT Cell Modulator Liposomal Compositions and Methods of Use” (priority 2023, published 2026).
“And” between values parts separate entries of the source, which are not always exact repeats. Equal values may be shown once. Read-outs that look alike come from different tables or passages of the source.

How the values were obtained:
[1] = Mouse pharmacokinetics of IMM60 after i.v. liposomal or soluble IMM60 (Example 7); type: in vivo, mouse (C57BL/6 and CD1)
Procedure: The two strains of mice that were compared were CD1 mice (not to be confused with CD1d-KO mice) and C57BL/mice. The half-life, volume of distribution, clearance, AUC, and Cmax were calculated using the one-compartmental model with first-order kinetics.
Lipid formulation: DSPG:DSPC:IMM60 (3.44:4.37:1 mg/ml) in a 250 mM sucrose, 145 mM NaCl, 10 mM sodium phosphate, pH 6.5 buffer. Before use, Vials of liposomal IMM60 were thawed at room temperature (21° C.-22° C.), then heated to 55° C. for 10 minutes using a heated water bath. Vials were mixed by inversion six times, cooled to room temperature, and diluted to either 100 ng/ml or 10,000 ng/ml using injection grade saline (0.9% NaCl).
Soluble IMM60: Lyophilized material was resuspended in Chloroform:methanol:water (10:10:3) to 10 mg/ml (vials of 100 μg in 10 μl) swirled around to capture all the material and then Vehicle solution (150 mM NaCl, 0.5% Tween20 in distilled water) added quickly to a final concentration of 100 μg/ml (for 100 μg in 10 μl, added 990 μl of Vehicle), then then heated to 80-90° C. for 5 minutes, and sonicated with a waterbath sonicator for 5 minutes. Samples were diluted to 10,000 ng/ml using injection grade saline.
Mice were warmed up for 20-30 minutes in cages place in a 37° C. heating chamber. Mice within each group were injected intravenously, using 27G insulin syringe needles, with 100 μl (C57BL/mice) or 150 μl (CD-1 mice) of the recorded dose over approximately 4 seconds.
Plasma samples were analyzed by LC/MS/MS at Frontage Laboratories. […] The method uses alpha GalCer (analog to IMM60) as an internal standard and the mass spectroctoscopic ionization is electrospray in the positive ionization mode. The range of calibration standards is between 1 ng/mL to 1000 ng/mL IMM60 in mouse plasma.
Plasma concentrations were measured 10 and 180 minutes after IV administration. The half-life, clearance, and AUC(0-∞) were calculated using the one-compartmental model with first-order kinetics since only two time points were samples along the PK profile. Using these assumptions allow for the calculation of PK parameters. Other assumption is that the T10 minutes is substituted for T0 and C10 minutes is substituted for C0 and Cmax to solve for PK parameters of liposomal IMM60.
Statistical Calculations: the mean, standard deviation (SD), standard error of the mean (SE), p-value from the t-test (equal or unequal variances) was calculated using Microsoft Excel 201 (Microsoft Corporation). Equal or unequal variances were chosen based on use of the F-test function. All t-test comparisons were performed with the 1000 ng IMM60 in liposome form as the control. Half-life T(1/2) in Mouse of IMM60: The half-life for mice of IMM60 is calculated using Equation 1 using the one-compartment model with 1st order kinetics.

[2] = system: iNKT cells / immune cells; test: PD-1 / PD-L1 upregulation on immune cells by soluble IMM60
[3] = individual mouse, C57BL/6, 1000 ng i.v., listed as IMM60 soluble
[4] = individual mouse, CD1, 1500 ng i.v., listed as IMM60 soluble

## CCCCCCCCCCCCCCCCCCCCCCCCCC(=O)N[C@@H](CO[C@H]1CC[C@H](O)[C@H](O)[C@H]1O)[C@H](O)[C@H](O)CCCCCCCCCCCCCC [soluble IMM60]
[1]; individual mouse, C57BL/6, 1000 ng i.v., 10 min, listed as IMM60 soluble
  Cmax: 87.7 ng/mL
[1]; [3]
  AUC(0-∞): 12,418 ng/ml/min
  Vd: 0.0114 L
  half-life: 98.13 min
[1]; individual mouse, CD1, 1500 ng i.v., 10 min, listed as IMM60 soluble
  Cmax: 105.0 ng/mL
[1]; [4]
  AUC(0-∞): 17,976 ng/ml/min
  Vd: 0.01429 L
  half-life: 118.64 min
[1]; mice
  Half-life and volume of distribution vs liposomal: longer half-life and larger volume of distribution
[1]; mouse, plasma, iv, 0.001 mg, average, C57BL/6, 1000 ng i.v.
  AUC(0-inf): 204 ng·h/mL
[1]; mouse, plasma, iv, 0.001 mg, average, C57BL/6, 1000 ng i.v., 10 min
  Cmax at 10 min: 89.7 ng/mL
[1]; mouse, plasma, iv, 0.001 mg, average, C57BL/6, 1000 ng i.v., read-out: Clearance
  clearance: 0.08 mL/min
[1]; mouse, plasma, iv, 0.001 mg, average, C57BL/6, 1000 ng i.v., read-out: Half-life
  half-life: 94.5 min
[1]; mouse, plasma, iv, 0.001 mg, average, C57BL/6, 1000 ng i.v., read-out: Vd
  Vd: 0.0112 L
[1]; mouse, plasma, iv, 0.001 mg, individual mouse, C57BL/6, 1000 ng i.v.
  AUC(0-inf): 201 ng·h/mL
[1]; mouse, plasma, iv, 0.001 mg, individual mouse, C57BL/6, 1000 ng i.v., 10 min
  Cmax at 10 min: 91.7 ng/mL
[1]; mouse, plasma, iv, 0.001 mg, individual mouse, C57BL/6, 1000 ng i.v., read-out: Clearance
  clearance: 0.08 mL/min
[1]; mouse, plasma, iv, 0.001 mg, individual mouse, C57BL/6, 1000 ng i.v., read-out: Half-life
  half-life: 90.9 min
[1]; mouse, plasma, iv, 0.001 mg, individual mouse, C57BL/6, 1000 ng i.v., read-out: Vd
  Vd: 0.0109 L
[1]; mouse, plasma, iv, 0.0015 mg, average, CD1, 1500 ng i.v.
  AUC(0-inf): 269 ng·h/mL
[1]; mouse, plasma, iv, 0.0015 mg, average, CD1, 1500 ng i.v., 10 min
  Cmax at 10 min: 83.7 ng/mL
[1]; mouse, plasma, iv, 0.0015 mg, average, CD1, 1500 ng i.v., read-out: Clearance
  clearance: 0.09 mL/min
[1]; mouse, plasma, iv, 0.0015 mg, average, CD1, 1500 ng i.v., read-out: Half-life
  half-life: 139 min
[1]; mouse, plasma, iv, 0.0015 mg, average, CD1, 1500 ng i.v., read-out: Vd
  Vd: 0.0192 L
[1]; mouse, plasma, iv, 0.0015 mg, individual mouse, CD1, 1500 ng i.v.
  AUC(0-inf): 239 ng·h/mL
[1]; mouse, plasma, iv, 0.0015 mg, individual mouse, CD1, 1500 ng i.v., 10 min
  Cmax at 10 min: 62.4 ng/mL
[1]; mouse, plasma, iv, 0.0015 mg, individual mouse, CD1, 1500 ng i.v., read-out: Clearance
  clearance: 0.1 mL/min
[1]; mouse, plasma, iv, 0.0015 mg, individual mouse, CD1, 1500 ng i.v., read-out: Half-life
  half-life: 159 min
[1]; mouse, plasma, iv, 0.0015 mg, individual mouse, CD1, 1500 ng i.v., read-out: Vd
  Vd: 0.024 L
[1]; mouse, plasma, iv, 0.05 mg/kg, C57BL and CD1 strains, high dose
  AUC(0-inf): 204 to 269 ng·h/mL
[1]; mouse, plasma, iv, 0.05 mg/kg, C57BL and CD1 strains, high dose, read-out: Clearance
  clearance: 3.1 to 4.1 mL/min/kg
[1]; mouse, plasma, iv, 0.05 mg/kg, C57BL and CD1 strains, high dose, read-out: Cmax
  Cmax: 84 to 90 ng/mL
[1]; mouse, plasma, iv, 0.05 mg/kg, C57BL and CD1 strains, high dose, read-out: Half life T1/2
  half-life: 95 to 139 min
[1]; mouse, plasma, iv, 0.05 mg/kg, C57BL and CD1 strains, high dose, read-out: Volume of distribution Vd
  Vd: 0.558 to 0.639 L/kg
[1]; mouse, plasma, iv, 0.05 mg/kg, mean ± SE, 1000 ng (50 μg/kg) i.v.
  AUC(0-inf): 204 ng·h/mL
[1]; mouse, plasma, iv, 0.05 mg/kg, mean ± SE, 1000 ng (50 μg/kg) i.v., read-out: Cl
  clearance: 0.08 mL/min and 4.09 mL/min/kg
[1]; mouse, plasma, iv, 0.05 mg/kg, mean ± SE, 1000 ng (50 μg/kg) i.v., read-out: Cmax
  Cmax: 90 ± 2 ng/mL
[1]; mouse, plasma, iv, 0.05 mg/kg, mean ± SE, 1000 ng (50 μg/kg) i.v., read-out: Vd
  Vd: 0.558 ± 0.012 L/kg
[1]; mouse, plasma, iv, 0.05 mg/kg, mean ± SE, 1000 ng (50 μg/kg) i.v., read-out: t1/2
  half-life: 94.5 ± 3.6 min
[1]; mouse, plasma, iv, 0.05 mg/kg, mean ± SE, 1500 ng (50 μg/kg) i.v.
  AUC(0-inf): 269 ng·h/mL
[1]; mouse, plasma, iv, 0.05 mg/kg, mean ± SE, 1500 ng (50 μg/kg) i.v., read-out: Cl
  clearance: 0.09 mL/min and 3.13 mL/min/kg
[1]; mouse, plasma, iv, 0.05 mg/kg, mean ± SE, 1500 ng (50 μg/kg) i.v., read-out: Cmax
  Cmax: 84 ± 21 ng/mL
[1]; mouse, plasma, iv, 0.05 mg/kg, mean ± SE, 1500 ng (50 μg/kg) i.v., read-out: Vd
  Vd: 0.639 ± 0.163 L/kg
[1]; mouse, plasma, iv, 0.05 mg/kg, mean ± SE, 1500 ng (50 μg/kg) i.v., read-out: t1/2
  half-life: 139 ± 20.4 min
[2]
  PD-1 on iNKT cells: upregulate the levels of PD-1 on iNKT cells
  PD-L1 on a variety of immune cells: upregulates expression of PD-L1
